# In ChEMBL document CHEMBL1201862, “PubChem BioAssay data set” (2004):
# Activity calls are given as the source filed them.
# Tests used:
# HEK293 [1] = test: SAR Analysis of small molecule inhibitors of B-cell specific antigen receptor-induced NF-kB activation in a HEK-293T cell line using a luminescence assay - Set 2. [Related pubchem assays (depositor defined):AID435022, AID435025, AID489021]; assay type: functional, cell-based; details: Homo sapiens
# HEK293 [2] = test: HEK293T cell viability loss, resazurin readout – resazurin fluorescence, cytotoxicity control for NF-kB activator project, SAR follow-up (AID 493251); assay type: functional, cell-based; details: Homo sapiens
# Jurkat = test: SAR Analysis of small molecule inhibitors of […] specific antigen receptor-induced NF-kB activation in a Jurkat cell line using a luminescence assay - Set 3. [Related pubchem assays (depositor defined):AID435022, AID435025, AID465]; assay type: functional, cell-based; details: Homo sapiens
# [3] = Counterscreen for AddAB inhibitors: absorbance-based bacterial cell-based high throughput dose response assay for inhibitors of bacterial viability. [Related pubchem assays (depositor defined):AID435030, AID449728, AID449731, AID488942, AID488955, AID488956]; assay type: functional
# Exodeoxyribonuclease V = Exodeoxyribonuclease V (Escherichia coli (strain K12), UniProt P04993+P07648+P08394); test: RecBCD inhibition via phage-restricted bacterial growth – absorbance, V66 E. coli, mutant T4 phage, counter-screen for AddAB inhibitor project, dose response (AID 492957); assay type: functional, cell-based, Escherichia coli str. K-12 substr. MG1655
# [4] = suppression of NO production in INS-1E cells – cell-based, Griess absorbance, dry powder, set 3, dose response (AID 488870); assay type: functional; details: Rattus norvegicus
# Fatty acid synthase [5] = target: T1, Fatty acid synthase (Homo sapiens, UniProt P49327); test: inhibition of human FAS-TE enzyme activity – biochemical, kinetic fluorescence intensity, dose response (AID 624326); assay type: functional;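 also: rate of fluorescence rise from hydrolysis of a fluorogenic O-methyl fluorescein ester substrate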
# T1 sequence (P49327 whole entry): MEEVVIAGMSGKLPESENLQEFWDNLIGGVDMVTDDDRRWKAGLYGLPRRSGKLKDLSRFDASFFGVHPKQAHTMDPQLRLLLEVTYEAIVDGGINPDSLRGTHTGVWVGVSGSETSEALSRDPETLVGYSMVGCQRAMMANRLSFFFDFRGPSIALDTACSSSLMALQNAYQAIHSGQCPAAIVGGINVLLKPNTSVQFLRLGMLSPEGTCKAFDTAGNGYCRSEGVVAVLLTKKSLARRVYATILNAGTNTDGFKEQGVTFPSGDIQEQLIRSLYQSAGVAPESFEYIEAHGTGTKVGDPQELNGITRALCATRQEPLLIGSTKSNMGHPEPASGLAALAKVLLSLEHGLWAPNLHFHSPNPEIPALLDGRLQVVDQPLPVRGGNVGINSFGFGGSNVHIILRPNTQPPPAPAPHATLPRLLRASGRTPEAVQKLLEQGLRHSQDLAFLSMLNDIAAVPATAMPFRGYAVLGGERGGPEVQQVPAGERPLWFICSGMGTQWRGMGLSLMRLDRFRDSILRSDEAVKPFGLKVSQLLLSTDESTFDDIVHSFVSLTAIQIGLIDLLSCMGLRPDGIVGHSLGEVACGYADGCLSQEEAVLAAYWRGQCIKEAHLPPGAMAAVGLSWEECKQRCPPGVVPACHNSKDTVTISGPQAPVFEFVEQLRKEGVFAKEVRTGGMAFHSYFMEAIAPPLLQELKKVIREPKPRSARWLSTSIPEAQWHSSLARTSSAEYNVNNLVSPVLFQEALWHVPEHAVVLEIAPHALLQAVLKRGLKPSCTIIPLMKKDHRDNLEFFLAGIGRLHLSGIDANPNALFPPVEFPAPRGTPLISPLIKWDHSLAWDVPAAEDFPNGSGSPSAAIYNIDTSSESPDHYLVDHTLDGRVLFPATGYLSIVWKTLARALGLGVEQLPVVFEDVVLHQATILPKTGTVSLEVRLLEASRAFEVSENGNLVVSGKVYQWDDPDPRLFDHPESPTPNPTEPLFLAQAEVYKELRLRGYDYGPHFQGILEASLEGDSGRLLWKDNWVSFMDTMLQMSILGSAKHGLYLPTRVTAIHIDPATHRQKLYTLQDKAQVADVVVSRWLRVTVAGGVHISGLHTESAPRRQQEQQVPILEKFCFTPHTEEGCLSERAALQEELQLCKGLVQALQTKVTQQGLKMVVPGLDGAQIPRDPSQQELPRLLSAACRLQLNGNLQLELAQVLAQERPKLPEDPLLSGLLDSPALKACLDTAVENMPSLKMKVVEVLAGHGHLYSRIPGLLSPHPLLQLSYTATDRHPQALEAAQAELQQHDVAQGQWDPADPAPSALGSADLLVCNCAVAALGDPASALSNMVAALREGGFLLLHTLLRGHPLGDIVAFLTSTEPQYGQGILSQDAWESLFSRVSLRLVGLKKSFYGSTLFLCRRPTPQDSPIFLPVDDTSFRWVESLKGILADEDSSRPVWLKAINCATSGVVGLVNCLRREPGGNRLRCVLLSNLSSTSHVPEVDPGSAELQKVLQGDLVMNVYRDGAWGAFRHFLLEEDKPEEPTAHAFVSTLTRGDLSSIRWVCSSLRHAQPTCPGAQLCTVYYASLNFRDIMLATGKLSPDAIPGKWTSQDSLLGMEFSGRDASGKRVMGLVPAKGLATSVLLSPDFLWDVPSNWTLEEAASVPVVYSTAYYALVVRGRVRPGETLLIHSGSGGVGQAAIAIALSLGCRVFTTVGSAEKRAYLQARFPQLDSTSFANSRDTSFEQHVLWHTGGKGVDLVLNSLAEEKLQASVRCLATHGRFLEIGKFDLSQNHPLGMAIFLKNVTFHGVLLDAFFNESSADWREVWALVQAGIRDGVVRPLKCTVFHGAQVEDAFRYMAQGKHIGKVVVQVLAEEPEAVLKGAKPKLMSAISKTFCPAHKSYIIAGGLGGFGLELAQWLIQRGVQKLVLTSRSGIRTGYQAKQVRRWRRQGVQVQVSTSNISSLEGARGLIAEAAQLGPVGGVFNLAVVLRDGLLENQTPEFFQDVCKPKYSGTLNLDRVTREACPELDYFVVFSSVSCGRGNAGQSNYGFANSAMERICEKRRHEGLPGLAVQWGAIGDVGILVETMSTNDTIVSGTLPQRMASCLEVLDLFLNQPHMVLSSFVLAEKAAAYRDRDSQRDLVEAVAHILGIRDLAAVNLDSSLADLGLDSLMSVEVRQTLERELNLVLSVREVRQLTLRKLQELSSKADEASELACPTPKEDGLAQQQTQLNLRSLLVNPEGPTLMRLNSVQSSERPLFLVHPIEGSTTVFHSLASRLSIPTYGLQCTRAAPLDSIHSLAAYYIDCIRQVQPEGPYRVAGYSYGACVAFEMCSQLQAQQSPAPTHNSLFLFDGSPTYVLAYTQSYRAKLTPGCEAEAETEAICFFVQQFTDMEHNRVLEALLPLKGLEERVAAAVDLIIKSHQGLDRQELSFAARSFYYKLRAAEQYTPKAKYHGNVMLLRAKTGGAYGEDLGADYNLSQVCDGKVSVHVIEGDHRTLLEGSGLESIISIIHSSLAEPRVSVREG
# Cytochrome P450 2D6 = Cytochrome P450 2D6 (Homo sapiens, UniProt P10635);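 also: CYP2D6 member of a cytochrome P450 panel assay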
# Cytochrome P450 2D6, sequence (P10635 whole entry): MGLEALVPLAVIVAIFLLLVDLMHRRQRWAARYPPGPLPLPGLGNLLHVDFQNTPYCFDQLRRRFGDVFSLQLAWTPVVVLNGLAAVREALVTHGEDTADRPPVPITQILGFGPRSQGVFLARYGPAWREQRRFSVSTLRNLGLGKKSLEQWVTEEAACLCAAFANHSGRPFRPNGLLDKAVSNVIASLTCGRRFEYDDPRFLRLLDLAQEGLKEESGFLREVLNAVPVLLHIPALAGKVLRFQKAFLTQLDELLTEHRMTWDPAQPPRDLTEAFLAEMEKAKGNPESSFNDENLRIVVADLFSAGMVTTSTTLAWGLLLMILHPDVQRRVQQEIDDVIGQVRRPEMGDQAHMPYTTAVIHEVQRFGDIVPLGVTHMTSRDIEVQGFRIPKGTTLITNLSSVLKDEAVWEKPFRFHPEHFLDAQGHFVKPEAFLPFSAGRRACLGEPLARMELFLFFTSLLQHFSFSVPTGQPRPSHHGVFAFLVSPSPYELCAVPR
# Fatty acid synthase [6] = target: T1, Fatty acid synthase; test: inhibition of human FAS-TE enzyme activity – biochemical, endpoint fluorescence intensity, uHTS hits, dose response (AID 624327); assay type: functional;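 also: fluorescence from hydrolysis of an O-methyl fluorescein acyl ester substrate by the enzyme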
# [7] = target: G-protein coupled receptor 55 (Homo sapiens, UniProt Q9Y2T6); test: blockers of GPR55 signalling, imaged – imaging, image-based, counter-screen for GPR35 antagonist project, SAR follow-up (AID 2397); assay type: functional
# G-protein coupled receptor 55, sequence (Q9Y2T6 whole entry): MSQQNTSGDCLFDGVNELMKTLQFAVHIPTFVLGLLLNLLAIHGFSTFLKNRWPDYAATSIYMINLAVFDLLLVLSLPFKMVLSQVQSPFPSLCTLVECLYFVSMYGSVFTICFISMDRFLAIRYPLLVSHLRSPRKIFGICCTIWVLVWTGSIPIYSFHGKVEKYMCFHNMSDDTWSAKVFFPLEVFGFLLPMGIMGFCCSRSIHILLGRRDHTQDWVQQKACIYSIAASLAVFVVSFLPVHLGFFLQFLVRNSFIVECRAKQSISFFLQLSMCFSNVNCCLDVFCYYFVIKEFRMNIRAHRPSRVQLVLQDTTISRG
# [8] = target: T2, Alkaline phosphatase, tissue-nonspecific isozyme (Homo sapiens, UniProt P05186); test: activation of tissue-nonspecific alkaline phosphatase – biochemical, TNAP isozyme, mouse IAP uHTS hits, selectivity assay for mouse IAP activator project, dose response (AID 488880); assay type: functional
# T2 sequence (P05186 whole entry): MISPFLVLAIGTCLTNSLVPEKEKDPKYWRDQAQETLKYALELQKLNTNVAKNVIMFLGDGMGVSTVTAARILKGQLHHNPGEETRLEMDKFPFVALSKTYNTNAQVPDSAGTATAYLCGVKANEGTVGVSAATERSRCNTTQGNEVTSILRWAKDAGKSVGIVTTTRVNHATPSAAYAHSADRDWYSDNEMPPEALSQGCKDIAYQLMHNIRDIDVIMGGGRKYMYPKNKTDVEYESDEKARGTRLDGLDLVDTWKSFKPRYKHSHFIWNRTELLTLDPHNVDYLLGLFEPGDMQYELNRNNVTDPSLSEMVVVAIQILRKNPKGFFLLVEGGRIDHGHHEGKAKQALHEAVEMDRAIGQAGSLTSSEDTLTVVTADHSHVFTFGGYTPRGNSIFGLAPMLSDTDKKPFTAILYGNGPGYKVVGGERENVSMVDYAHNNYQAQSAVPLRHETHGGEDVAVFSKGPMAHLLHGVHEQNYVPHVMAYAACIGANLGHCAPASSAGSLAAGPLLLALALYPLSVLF
# [9] = target: Intestinal-type alkaline phosphatase (Mus musculus, UniProt P24822); test: mouse intestinal alkaline phosphatase activators, dose response, biochemical, luminescence, uHTS hits (AID 488783); assay type: functional
# Intestinal-type alkaline phosphatase (Mus musculus, UniProt P24822), sequence (P24822 whole entry): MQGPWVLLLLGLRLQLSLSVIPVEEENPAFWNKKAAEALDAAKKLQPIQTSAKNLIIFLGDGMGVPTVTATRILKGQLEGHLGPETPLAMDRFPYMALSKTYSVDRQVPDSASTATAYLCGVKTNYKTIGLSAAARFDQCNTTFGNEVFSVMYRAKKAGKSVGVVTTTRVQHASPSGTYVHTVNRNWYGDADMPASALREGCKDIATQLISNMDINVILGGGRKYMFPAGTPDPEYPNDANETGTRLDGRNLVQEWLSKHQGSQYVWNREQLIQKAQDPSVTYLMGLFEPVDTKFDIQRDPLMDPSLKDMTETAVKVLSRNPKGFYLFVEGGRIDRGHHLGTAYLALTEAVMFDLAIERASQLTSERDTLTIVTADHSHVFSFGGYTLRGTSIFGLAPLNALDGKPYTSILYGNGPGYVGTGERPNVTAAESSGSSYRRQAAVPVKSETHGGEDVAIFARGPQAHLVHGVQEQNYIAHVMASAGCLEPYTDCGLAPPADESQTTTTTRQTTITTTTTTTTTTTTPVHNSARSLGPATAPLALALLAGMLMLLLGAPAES
# [10] = target: 72 kDa type IV collagenase (Homo sapiens, UniProt P08253); test: Dose Response validation of uHTS RPN11 inhibitor hits using a MMP-2 Fluorescence assay.; assay type: functional
# Prothrombin = Prothrombin (Bos taurus, UniProt P00735); test: thrombin protease inhibitors – biochemical, fluorescence polarization, uHTS hits, dose response (AID 602369); assay type: functional
# Phospholipase A2 = Phospholipase A2 (Homo sapiens, UniProt P04054); assay type: functional;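 also: confirmatory dose-response counterscreen on phospholipase A2, testing hits that came from an ultra-high-throughput screen for ATG4B inhibitors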
# Phospholipase A2, sequence (P04054 whole entry): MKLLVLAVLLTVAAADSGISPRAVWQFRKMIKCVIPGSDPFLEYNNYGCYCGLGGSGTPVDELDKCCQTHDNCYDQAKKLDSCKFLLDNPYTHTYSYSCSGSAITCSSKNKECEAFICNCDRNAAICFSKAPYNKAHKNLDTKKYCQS
# Vero = test: viability of Vero cells under compound – cytotoxicity control for flavivirus capping enzyme inhibitors (AID 588742); assay type: functional; details: Chlorocebus sabaeus
# [11] = target: Intestinal-type alkaline phosphatase (Homo sapiens, UniProt P09923); test: activation of human intestinal alkaline phosphatase – biochemical, dose response (AID 488873); assay type: functional
# ORF 73 = ORF 73 (Human herpesvirus 8, UniProt O40947); test: KSHV LANA DNA-binding disruption – biochemical, fluorescence polarization, cherry-picked samples, dose response (AID 504725); set-up: species or system Human gammaherpesvirus 8;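 also: fluorescence polarization of a labeled DNA duplex reporting LANA DNA binding; potency is for inhibitors that block LANA binding to the DNA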
# [12] = target: 26S proteasome non-ATPase regulatory subunit 14 (Homo sapiens, UniProt O00487); test: inhibition of proteasome subunit RPN11 – biochemical, fluorescence polarization, uHTS hits, confirmation (AID 602368); assay type: functional
# 26S proteasome non-ATPase regulatory subunit 14, sequence (O00487 whole entry): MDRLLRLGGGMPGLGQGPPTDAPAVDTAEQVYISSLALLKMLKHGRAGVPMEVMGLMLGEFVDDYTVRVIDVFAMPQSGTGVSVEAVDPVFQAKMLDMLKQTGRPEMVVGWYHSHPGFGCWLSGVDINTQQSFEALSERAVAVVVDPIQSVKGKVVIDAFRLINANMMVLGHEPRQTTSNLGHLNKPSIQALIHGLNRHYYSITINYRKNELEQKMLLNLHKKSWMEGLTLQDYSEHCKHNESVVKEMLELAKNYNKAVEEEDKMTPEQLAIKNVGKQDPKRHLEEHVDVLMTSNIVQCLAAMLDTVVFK
# Genome polyprotein = Genome polyprotein (dengue virus type 2, UniProt P29990); test: flavivirus cap methylation enzyme inhibition – biochemical, confirmation dose response, primary screen (AID 588689); assay type: functional
# Large T antigen = Large T antigen (Simian virus 40, UniProt P03070); assay type: functional, Betapolyomavirus macacae;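 also: Confirmatory-stage PubChem screen for compounds that inhibit SV40 T antigen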
# Large T antigen, sequence (P03070 whole entry): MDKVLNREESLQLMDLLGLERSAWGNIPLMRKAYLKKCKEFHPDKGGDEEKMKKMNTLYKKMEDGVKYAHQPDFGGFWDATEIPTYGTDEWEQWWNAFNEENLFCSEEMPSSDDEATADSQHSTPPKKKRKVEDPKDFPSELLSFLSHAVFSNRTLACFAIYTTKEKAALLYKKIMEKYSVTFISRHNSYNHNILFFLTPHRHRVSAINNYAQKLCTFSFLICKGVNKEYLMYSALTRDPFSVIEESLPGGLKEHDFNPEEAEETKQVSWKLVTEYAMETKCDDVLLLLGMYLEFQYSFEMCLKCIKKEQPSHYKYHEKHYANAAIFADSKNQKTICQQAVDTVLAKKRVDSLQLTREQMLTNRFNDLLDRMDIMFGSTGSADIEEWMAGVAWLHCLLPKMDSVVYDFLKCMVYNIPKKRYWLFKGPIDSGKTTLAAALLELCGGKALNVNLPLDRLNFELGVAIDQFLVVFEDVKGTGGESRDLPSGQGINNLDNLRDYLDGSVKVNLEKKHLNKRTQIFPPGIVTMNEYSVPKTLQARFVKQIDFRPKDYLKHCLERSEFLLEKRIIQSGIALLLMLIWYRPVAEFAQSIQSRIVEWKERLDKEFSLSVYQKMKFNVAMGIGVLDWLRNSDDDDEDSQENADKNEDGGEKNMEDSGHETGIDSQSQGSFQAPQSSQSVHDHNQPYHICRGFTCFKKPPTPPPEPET
# Cysteine protease ATG4B = target: T3, Cysteine protease ATG4B (Homo sapiens, UniProt Q9Y4P1); assay type: functional;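 also: Fluorescence-based dose-response confirmation assay measuring inhibition of ATG4B activity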
# T3 sequence (Q9Y4P1 whole entry): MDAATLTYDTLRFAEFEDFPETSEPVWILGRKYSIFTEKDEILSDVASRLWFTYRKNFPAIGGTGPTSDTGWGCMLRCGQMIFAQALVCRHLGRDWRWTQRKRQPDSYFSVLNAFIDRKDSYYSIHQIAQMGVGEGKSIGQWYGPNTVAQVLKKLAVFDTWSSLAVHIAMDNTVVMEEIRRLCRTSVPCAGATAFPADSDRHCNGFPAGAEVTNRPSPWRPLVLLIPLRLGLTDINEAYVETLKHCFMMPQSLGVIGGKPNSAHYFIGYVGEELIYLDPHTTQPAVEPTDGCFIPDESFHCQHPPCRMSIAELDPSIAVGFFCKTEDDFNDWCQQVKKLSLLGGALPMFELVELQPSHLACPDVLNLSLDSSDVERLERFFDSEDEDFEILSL
# [13] = alpha-synuclein stem-loop translation blockers – luminescence, H4 neuroglioblastoma cells, dose confirmation, confirmation (AID 2454); assay type: functional, cell-based;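 also: H4 neuroglioblastoma cells carrying an alpha-synuclein 5'UTR luciferase reporter; potency for inhibition of the luciferase signal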
# [14] = Luminescence Cell-Based Dose Response HTS to Identify Inhibitors of 5'UTR Stem-Loop Driven Prion Protein mRNA Translation in H4 Neuroglioblastoma Cells. [Related pubchem assays: 1827 (Project Summary), 1813 (Primary HTS)]; assay type: functional
# cells = assay type: functional, cell-based
# [15] = luciferase reporter signal reduction – luminescence, H4-C neuroglioblastoma cells, dose response (AID 2458); assay type: functional, cell-based;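 also: H4 neuroglioblastoma cells stably carrying a luciferase reporter gene fusion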
# [16] = alpha-synuclein stem-loop luciferase translation blockers – H4 neuroglioma cells, luminescence, confirmation (AID 1988); assay type: functional, cell-based
# [17] = restored growth of temperature-sensitive Burl-1 yeast – whole organism, S. cerevisiae, Burl-1 ts mutant, luminescence, counter-screen for SUMOylation pathway inhibitor project, dose response (AID 463199); assay type: functional
# [18] = luciferase reporter signal suppression in cells – H4 neuroglioma cells, luminescence, dose response (AID 1990); assay type: functional, cell-based
# [19] = target: Lysine-specific demethylase 4C (Homo sapiens, UniProt Q9H3R0); test: inhibition of JMJD2C H3K9me3 demethylation – biochemical, DELFIA europium, cherry-picked samples, dose response (AID 488835); assay type: functional
# [20] = NIH-3T3 fibroblast cytotoxicity, dose response, cytotoxicity control, cell-based, fluorescence, Alamar Blue, secondary assay (AID 2327); assay type: functional;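 also: NIH-3T3 mouse fibroblasts cultured with fluconazole at 8 µg/mL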
# [21] = fluconazole-exposed Candida albicans growth modulators – fluorescence, retest, confirmation (AID 2467); assay type: functional, cell-based
# Tumor necrosis factor = Tumor necrosis factor (Homo sapiens, UniProt P01375); test: analog potency on TNFa NF-kB signaling – cell-based, set 3, SAR follow-up (AID 2801); assay type: functional
# [22] = target: T4, Nucleotide-binding oligomerization domain-containing protein 1 (Homo sapiens, UniProt Q9Y239); test: SAR analysis of compounds that inhibit NOD1 - Set 3. [Related pubchem assays (depositor defined):AID1566, AID1575, AID1578, AID1849, AID1852, AID2333, AID2335, AID2466]; assay type: functional
# T4 sequence (Q9Y239 whole entry): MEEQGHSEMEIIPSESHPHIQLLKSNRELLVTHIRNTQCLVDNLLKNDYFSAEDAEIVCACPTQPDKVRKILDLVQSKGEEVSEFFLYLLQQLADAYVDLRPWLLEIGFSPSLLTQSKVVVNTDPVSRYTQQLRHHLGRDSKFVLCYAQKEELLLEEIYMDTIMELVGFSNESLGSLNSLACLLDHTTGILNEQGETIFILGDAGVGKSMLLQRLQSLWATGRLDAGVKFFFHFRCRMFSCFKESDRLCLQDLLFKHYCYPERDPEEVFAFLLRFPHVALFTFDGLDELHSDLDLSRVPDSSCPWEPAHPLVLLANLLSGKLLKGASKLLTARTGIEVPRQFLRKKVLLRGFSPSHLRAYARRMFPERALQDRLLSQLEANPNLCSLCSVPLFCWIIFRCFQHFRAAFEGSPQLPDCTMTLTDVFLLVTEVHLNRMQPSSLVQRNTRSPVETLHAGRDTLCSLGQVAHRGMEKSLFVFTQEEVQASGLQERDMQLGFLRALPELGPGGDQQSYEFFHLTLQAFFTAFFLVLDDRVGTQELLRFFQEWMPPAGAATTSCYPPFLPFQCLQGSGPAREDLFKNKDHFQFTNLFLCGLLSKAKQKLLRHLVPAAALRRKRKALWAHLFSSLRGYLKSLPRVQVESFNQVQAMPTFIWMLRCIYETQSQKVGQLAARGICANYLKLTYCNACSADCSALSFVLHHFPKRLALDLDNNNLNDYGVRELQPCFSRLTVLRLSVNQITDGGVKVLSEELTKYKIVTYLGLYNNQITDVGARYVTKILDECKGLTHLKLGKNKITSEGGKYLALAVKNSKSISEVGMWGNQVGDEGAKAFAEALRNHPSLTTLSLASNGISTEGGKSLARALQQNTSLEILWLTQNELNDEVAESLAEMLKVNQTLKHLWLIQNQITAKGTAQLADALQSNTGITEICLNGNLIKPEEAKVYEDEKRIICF
# HEK293 [23] = test: SAR analysis of compounds that are cytotoxic to HEK293 - Set 3. [Related pubchem assays (depositor defined):AID1575, AID1578, AID1848, AID1849, AID2001, AID2333, AID2334, AID2335, AID2337, AID2469]; assay type: functional, cell-based; details: Homo sapiens
# [24] = target: Nucleotide-binding oligomerization domain-containing protein 2 (Homo sapiens, UniProt Q9HC29); test: inhibition of MDP-driven NOD2 NF-kB reporter – cell-based, set 3, SAR follow-up (AID 2799); assay type: functional
smiles,measurement,setting,value
CCOc1ccc(-c2nc(CSCC(=O)NCCOC)c(C)o2)cc1,IC50,HEK293 [1],> 80 µM (inactive)
same,IC50,HEK293 [2],> 80 µM (inactive)
same,IC50,Jurkat,> 80 µM (inactive)
O=C(NNC(=O)c1cc2ccccc2cc1O)Nc1ccc(Br)cc1,IC50,[3],> 119 µM (inactive)
same,IC50,Exodeoxyribonuclease V,> 119 µM (inactive)
COc1ccc(NC(=O)N(C)C[C@@H]2Oc3c(NC(=O)Nc4cccc5ccccc45)cccc3C(=O)N([C@@H](C)CO)C[C@H]2C)cc1,AC50,[4],43.7 µM (active)
CC(C)(C)c1ccc(OC(=O)Nc2ccc(O)c(C(=O)O)c2)cc1,IC50,Fatty acid synthase [5],11.7 µM (active)
same,AC50,Cytochrome P450 2D6,inconclusive
same,IC50,Fatty acid synthase [6],9.66 µM (active)
Cc1c(C(=O)Nc2ccc3c(c2)OCCO3)sc2ncnc(N3CCCCC3C)c12 (stereo unspecified),IC50,[7],4.95 µM (active)
CC(C(=O)Nc1ccc(C(=O)O)c(O)c1)N1C(=O)/C(=C\c2ccco2)SC1=S (stereo unspecified),EC50,[8],62.2 µM (active)
same,EC50,[9],51.2 µM (active)
same,IC50,[10],0.968 µM (active)
same,IC50,Prothrombin,98.5 µM (active)
same,IC50,Phospholipase A2,26.6 µM (inactive)
same,CC50,Vero,> 40 µM (active)
same,EC50,[11],50.8 µM (active)
same,AC50,ORF 73,66.3 µM (active)
same,IC50,[12],14.6 µM (active)
same,IC50,Genome polyprotein,79.4 µM (active)
same,IC50,Large T antigen,47.9 µM (active)
same,IC50,Cysteine protease ATG4B,11 µM (active)
COc1ccc2cc3c(N)nn(C(=O)c4ccccc4Cl)c3nc2c1,EC50,[13],> 12 µM (not active)
same,EC50,[14],< 0.1 µM (active)
same,EC50,cells,0.736 µM (active)
same,EC50,[15],1.43 µM (active)
same,EC50,[16],9.14 µM (active)
same,AC50,[17],47.8 µM (active)
same,EC50,[18],< 0.1 µM (active)
FC(F)(F)c1ccccc1N=C(S)NN=C1CCCCCC1,AC50,[19],6.8 µM (active)
same,EC50,[20],54 µM (active)
same,EC50,[21],> 38 µM (not active)
CCCCn1c(SCCCc2ccccc2)nc2c1c(=O)[nH]c(=O)n2C,IC50,Tumor necrosis factor,17.7 µM (active)
same,IC50,[22],> 20 µM (inactive)
same,IC50,HEK293 [23],> 20 µM (inactive)
same,IC50,[24],11.9 µM (active)
